The target of this test is T1, SMPD1 Sphingomyelin phosphodiesterase (Homo sapiens, UniProt P17405).
T1 construct: isoTOP-ABPP experiments performed in cell lysates (in vitro); endogenous in cells; host or cells: soluble proteome of human cancer cell lines (MDA-MB-231; Ramos and Jurkat also prepared)
T1 sequence (P17405 47-631): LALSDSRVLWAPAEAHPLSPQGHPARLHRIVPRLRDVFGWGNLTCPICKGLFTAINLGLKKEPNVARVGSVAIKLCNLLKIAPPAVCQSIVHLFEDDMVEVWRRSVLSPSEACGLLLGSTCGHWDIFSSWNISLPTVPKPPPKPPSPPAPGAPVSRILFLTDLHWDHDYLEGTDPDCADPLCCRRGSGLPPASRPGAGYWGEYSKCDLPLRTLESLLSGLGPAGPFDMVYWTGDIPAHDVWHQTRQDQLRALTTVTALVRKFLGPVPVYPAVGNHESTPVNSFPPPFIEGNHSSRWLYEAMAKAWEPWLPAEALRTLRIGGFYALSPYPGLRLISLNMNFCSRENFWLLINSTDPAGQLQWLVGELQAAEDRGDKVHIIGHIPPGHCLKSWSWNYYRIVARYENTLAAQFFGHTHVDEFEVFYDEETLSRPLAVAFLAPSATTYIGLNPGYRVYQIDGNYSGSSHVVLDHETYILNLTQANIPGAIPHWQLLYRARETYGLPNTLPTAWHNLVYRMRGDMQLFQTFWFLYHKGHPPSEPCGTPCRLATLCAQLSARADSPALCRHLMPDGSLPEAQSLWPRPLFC
Briefly: competitive isoTOP-ABPP. The note with it: for isoTOP-ABPP ratio (R) at liganded lysine P17405_K118: sol, 231. Type of test: binding. The essentials:
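Fragments at 50 μM (activated esters) or 100 μM (guanidinylating agents) were incubated with 0.5 ml lysate before probe labeling. After 0.1 mM STP-alkyne for 1 h, samples were clicked to isotopically distinct TEV tags, and R taken as DMSO-over-compound MS1 peak-area ratio.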

Turning to `O=C(Oc1c(F)c(F)c(F)c(F)c1F)C(c1ccccc1)c1ccccc1` [fragment 20, Pentafluorophenyl 2,2-diphenylacetate], the “R value (DMSO/fragment) for probe 1 labeling” value (P17405_K118, 50 uM, 231 sol, in vitro) was 1.4.

Turning to `O=C(CCc1cn(-c2ccccc2)nc1-c1ccccc1)Oc1ccc([N+](=O)[O-])cc1[N+](=O)[O-]` [fragment 29, 2,4-Dinitrophenyl 3-(1,3-diphenyl-1H-pyrazol-4-yl)propanoate], the “isoTOP-ABPP reactivity ratio at lysine P17405_K118” value (50 uM, 231 sol, in vitro) is 2.5.

`O=C(Oc1ccc([N+](=O)[O-])cc1[N+](=O)[O-])c1ccc2ccccc2n1` [fragment 35, 2,4-Dinitrophenyl quinoline-2-carboxylate]: for the setting “50 uM, in vitro”, the “isoTOP-ABPP ratio (R) at liganded lysine P17405_K118” value (“isoTOP-ABPP ratio (R)” for short) stood at 1.4.

For the compound `O=C(CC12CC3CC(CC(C3)C1)C2)Oc1ccc([N+](=O)[O-])cc1[N+](=O)[O-]` [fragment 38, 2,4-Dinitrophenyl 2-(adamantan-1-yl)acetate], the “isoTOP-ABPP ratio (R)” value (50 uM, in vitro) came out at 1.2.

Regarding `O=C(Oc1ccc([N+](=O)[O-])cc1[N+](=O)[O-])c1ccc(Oc2ccccc2)cc1` [fragment 39, 2,4-Dinitrophenyl 4-phenoxybenzoate], the “isoTOP-ABPP ratio (R)” value (50 uM, in vitro) came to 0.8. Consider `CC(C)(C)OC(=O)NCCCC(=O)Oc1ccc([N+](=O)[O-])cc1[N+](=O)[O-]` [fragment 41, 2,4-Dinitrophenyl 4-((tert-butoxycarbonyl)amino)butanoate], for which the “isoTOP-ABPP ratio (R)” value (50 uM, in vitro) was 1.5. For the compound `N#Cc1ccc(C(=O)Oc2ccc([N+](=O)[O-])cc2[N+](=O)[O-])cc1` [fragment 44, 2,4-Dinitrophenyl 4-cyanobenzoate], the “isoTOP-ABPP ratio, lysine P17405_K118” value (50 uM_231_sol_in vitro) was 0.8.

For the compound `O=C(CCc1ccc2c(c1)OCO2)Oc1ccc([N+](=O)[O-])cc1[N+](=O)[O-]` [fragment 45, 2,4-Dinitrophenyl 3-(benzo[d][1,3]dioxol-5-yl)propanoate], the “isoTOP-ABPP ratio, lysine P17405_K118” value (50 uM_231_sol_in vitro) was found to be 1.1. On the same count and under the same terms, the value for `O=C(ON1C(=O)CCC1=O)c1cc(C(F)(F)F)cc(C(F)(F)F)c1` [fragment 46, 3,5-Bis(trifluoromethyl)benzoic acid NHS ester] was 0.7. In the case of `COC(=O)NC(=NC(=O)OCC1c2ccccc2-c2ccccc21)n1cccn1` [fragment 49, N-Methoxycarbonyl-N′-9-fluorenylmethoxycarbonyl-pyrazole-1-carboxamidine], the “isoTOP-ABPP ratio, lysine P17405_K118” value (100 uM_231_sol_in vitro) stood at 8.4.

Turning to `CC(C)(C)OC(=O)N=C(NC(=O)OC(C)(C)C)n1cccn1` [fragment 50, reference compound], the “isoTOP-ABPP ratio, lysine P17405_K118” value (100 uM_231_sol_in vitro) was 1.3. As to `NC(=O)c1cc(C(F)(F)F)cc(C(F)(F)F)c1` [fragment 51, reference compound], the “isoTOP-ABPP ratio, lysine P17405_K118” value (50 uM_231_sol_in vitro) is 0.9.

(Values after patent publication US20210255193A1, “LYSINE REACTIVE PROBES AND USES THEREOF” (The Scripps Research Institute, priority 2017, published 2021).)
